Where two headings read alike, the source gives them in different places.
Assays:
Assay type in all cases: cell-based
IL-17F = assay: Cytokine assay: IL-17F production by human PBMC stimulated with PHA; settings: IC50 class, read-out: IL-17F Inhib.
Procedure: (§1) Cytokine Assay: Analysis of Proliferation of and Cytokine Production by Human PBMC Stimulated with PHA
(§2) Peripheral blood mononuclear cells (PBMC) from healthy human donors were purified using Accuspin™ System-Histopaque-1077 (Sigma) according to the protocol recommended by the manufacturer. Purified PBMC were then washed twice with phosphate-buffered saline (PBS) and resuspended in RPMI1640 culture medium supplemented with 10% dialyzed heat inactivated fetal calf serum, 1.5 mM L-glutamine, 100 U penicillin/ml, and […] (all from PAN Biotech, Aidenbach, Germany). For stimulation, PBMC were seeded at 1×10^5 cells/well, activated with 2 μg/ml phytohaemagglutinin (PHA, Sigma) and incubated with the test compounds for 48 hours. IL-17A, IL-17F and INF-γ were then determined in the culture supernatant using a Luminex BioPlex system, following the manufacturer's instructions (BioRad, Munich, Germany). For screening, compounds were used at 10, 1, 0.1 and 0.01 μM. To determine the IC50, compounds were titrated semilogarithmically.
(§3) Cytokines were determined in the aforementioned culture supernatant using the following methods: IL-17A was measured using the human homodimer IL-17A ELISA Ready Set Go Kit from eBioscience (Frankfurt, Germany); IL-17F using the human IL-17F ELI-Pair from Hölzel DiagnosticaGmBH (Köln, Germany); and IFN-γ using the OptEIA human IFN-g ELISA from BD Bioscience (Heidelberg, Germany), all following the manufacturer's instructions.

IL-17A = assay: Cytokine assay: IL-17A production by human PBMC stimulated with PHA; settings: IC50 class, read-out: IL-17A Inhib.
Procedure: as §1, §2, §3

INF-γ = assay: Cytokine assay: INF-γ production by human PBMC stimulated with PHA; settings: IC50 class, read-out: IFN-gamma Inhib.
Procedure: as §1, §2, §3

C[C@]1(O)C[C@H](n2ncc(-c3onc(-c4c(F)cccc4Cl)c3C(=O)OC3CC3)c2C(F)(F)F)C1 [Example 50, cyclopropyl 3-(2-chloro-6-fluorophenyl)-5-(1-(3-hydroxy-3-methylcyclobutyl)-5-(trifluoromethyl)-1H-pyrazol-4-yl)isoxazole-4-carboxylate]
IC50 (IL-17F; Homo sapiens, PBMC): < 50 nM | IC50 (IL-17A; Homo sapiens, PBMC): 50 to 500 nM | IC50 (INF-γ; Homo sapiens, PBMC): < 50 nM

Cc1c(-c2onc(-c3ccccc3Cl)c2C(=O)OC2COC2)cnn1[C@H]1C[C@@](C)(O)C1 [Example 52, oxetan-3-yl 3-(2-chlorophenyl)-5-(1-(3-hydroxy-3-methylcyclobutyl)-5-methyl-1H-pyrazol-4-yl)isoxazole-4-carboxylate]
IC50 (IL-17F; Homo sapiens, PBMC): 50 to 500 nM | IC50 (IL-17A; Homo sapiens, PBMC): 50 to 500 nM | IC50 (INF-γ; Homo sapiens, PBMC): 50 to 500 nM

Cc1c(-c2onc(-c3ccccc3Cl)c2C(=O)OC2CC2)cnn1[C@H]1C[C@@](C)(O)C1 [Example 54, cyclopropyl 3-(2-chlorophenyl)-5-{5-methyl-1-[3-hydroxy-3-methylcyclobutyl]-1H-pyrazol-4-yl}-1,2-oxazole-4-carboxylate]
IC50 (IL-17F): 500 to 5000 nM | IC50 (IL-17A): 500 to 5000 nM | IC50 (INF-γ): 50 to 500 nM

CC(C)(O)Cn1ncc(-c2onc(-c3c(F)cccc3Cl)c2C(=O)OC2COC2)c1C(F)(F)F [Example 57, oxetan-3-yl 3-(2-chloro-6-fluorophenyl)-5-[1-(2-hydroxy-2-methylpropyl)-5-(trifluoromethyl)-1H-pyrazol-4-yl]-1,2-oxazole-4-carboxylate]
IC50 (IL-17F; Homo sapiens, PBMC): 50 to 500 nM | IC50 (IL-17A; Homo sapiens, PBMC): 500 to 5000 nM | IC50 (INF-γ; Homo sapiens, PBMC): 50 to 500 nM

CC(C)(O)Cn1ncc(-c2onc(-c3c(F)cccc3Cl)c2CO)c1C(F)(F)F [Example 63, 1-(4-(3-(2-chloro-6-fluorophenyl)-4-(hydroxymethyl)isoxazol-5-yl)-5-(trifluoromethyl)-1H-pyrazol-1-yl)-2-methylpropan-2-ol]
IC50 (IL-17F; Homo sapiens, PBMC): ≥ 5000 nM | IC50 (IL-17A; Homo sapiens, PBMC): ≥ 5000 nM | IC50 (INF-γ; Homo sapiens, PBMC): ≥ 5000 nM

C[C@]1(O)C[C@@H](n2ncc(-c3onc(-c4ccccc4Cl)c3CO)c2C(F)(F)F)C1 [Example 64, 3-(4-(3-(2-chlorophenyl)-4-(hydroxymethyl)-1,2-oxazol-5-yl)-5-(trifluoromethyl)-1H-pyrazol-1-yl)-1-methylcyclobutan-1-ol]
IC50 (IL-17F; Homo sapiens, PBMC): ≥ 5000 nM | IC50 (IL-17A; Homo sapiens, PBMC): ≥ 5000 nM | IC50 (INF-γ; Homo sapiens, PBMC): 500 to 5000 nM

COCc1c(-c2c(F)cccc2Cl)noc1-c1cnn(C[C@H](C)O)c1C(F)(F)F [Example 68, (2S)-1-(4-(3-(2-chloro-6-fluorophenyl)-4-(methoxymethyl)isoxazol-5-yl)-5-(trifluoromethyl)-1H-pyrazol-1-yl)propan-2-ol]
IC50 (IL-17F; Homo sapiens, PBMC): 500 to 5000 nM | IC50 (IL-17A; Homo sapiens, PBMC): 500 to 5000 nM | IC50 (INF-γ; Homo sapiens, PBMC): 50 to 500 nM

COCc1c(-c2ccccc2Cl)noc1-c1cnn([C@H]2C[C@@](C)(O)C2)c1C [Example 72, 3-{4-[3-(2-chlorophenyl)-4-(methoxymethyl)-1,2-oxazol-5-yl]-5-methyl-1H-pyrazol-1-yl}-1-methylcyclobutan-1-ol]
IC50 (IL-17F; Homo sapiens, PBMC): 50 to 500 nM | IC50 (IL-17A; Homo sapiens, PBMC): 50 to 500 nM | IC50 (INF-γ; Homo sapiens, PBMC): < 50 nM

COCc1c(-c2ccccc2Cl)noc1-c1cnn([C@H]2C[C@](C)(O)C2)c1C [Example 73, 3-{4-[3-(2-chlorophenyl)-4-(methoxymethyl)-1,2-oxazol-5-yl]-5-methyl-1H-pyrazol-1-yl}-1-methylcyclobutan-1-ol]
IC50 (IL-17F; Homo sapiens, PBMC): 500 to 5000 nM | IC50 (IL-17A; Homo sapiens, PBMC): 500 to 5000 nM | IC50 (INF-γ; Homo sapiens, PBMC): 500 to 5000 nM

COCc1c(-c2ccccc2Cl)noc1-c1cnn([C@H]2C[C@@](C)(O)C2)c1C(F)(F)F [Example 74, 3-(4-(3-(2-chlorophenyl)-4-(methoxymethyl)isoxazol-5-yl)-5-(trifluoromethyl)-1H-pyrazol-1-yl)-1-methylcyclobutan-1-ol]
IC50 (IL-17F; Homo sapiens, PBMC): 50 to 500 nM | IC50 (IL-17A; Homo sapiens, PBMC): 50 to 500 nM | IC50 (INF-γ; Homo sapiens, PBMC): 50 to 500 nM

COCCOCc1c(-c2ccccc2Cl)noc1-c1cnn(C[C@H](C)O)c1C(F)(F)F [Example 75, (2S)-1-{4-[3-(2-chlorophenyl)-4-[(2-methoxyethoxy)methyl]-1,2-oxazol-5-yl]-5-(trifluoromethyl)-1H-pyrazol-1-yl}propan-2-ol]
IC50 (IL-17F; Homo sapiens, PBMC): 500 to 5000 nM | IC50 (IL-17A; Homo sapiens, PBMC): 500 to 5000 nM | IC50 (INF-γ; Homo sapiens, PBMC): 500 to 5000 nM

Cc1c(-c2onc(-c3ccccc3Cl)c2COC2CC2)cnn1CCC(C)(C)O [Example 79, 4-{4-[3-(2-chlorophenyl)-4-(cyclopropoxymethyl)-1,2-oxazol-5-yl]-5-methyl-1H-pyrazol-1-yl}-2-methylbutan-2-ol]
IC50 (IL-17F; Homo sapiens, PBMC): 50 to 500 nM | IC50 (IL-17A; Homo sapiens, PBMC): 50 to 500 nM | IC50 (INF-γ; Homo sapiens, PBMC): < 50 nM

Cc1c(-c2onc(-c3ccccc3Cl)c2COC2CC2)cnn1[C@H]1C[C@](C)(O)C1 [Example 81, 3-{4-[3-(2-chlorophenyl)-4-(cyclopropoxymethyl)-1,2-oxazol-5-yl]-5-methyl-1H-pyrazol-1-yl}-1-methylcyclobutan-1-ol]
IC50 (IL-17F; Homo sapiens, PBMC): 500 to 5000 nM | IC50 (IL-17A; Homo sapiens, PBMC): 500 to 5000 nM | IC50 (INF-γ; Homo sapiens, PBMC): 50 to 500 nM

Cc1c(-c2onc(-c3c(F)cccc3Cl)c2COC2CC2)cnn1[C@H]1C[C@](C)(O)C1 [Example 84, 3-{4-[3-(2-chloro-6-fluorophenyl)-4-(cyclopropoxymethyl)-1,2-oxazol-5-yl]-5-methyl-1H-pyrazol-1-yl}-1-methylcyclobutan-1-ol]
IC50 (IL-17F; Homo sapiens, PBMC): 50 to 500 nM | IC50 (IL-17A; Homo sapiens, PBMC): 50 to 500 nM | IC50 (INF-γ; Homo sapiens, PBMC): 50 to 500 nM

C[C@H](O)Cn1ncc(-c2onc(-c3ccccc3Cl)c2COC2COC2)c1C(F)(F)F [Example 88, (S)-1-(4-(3-(2-chlorophenyl)-4-((oxetan-3-yloxy)methyl)isoxazol-5-yl)-5-(trifluoromethyl)-1H-pyrazol-1-yl)propan-2-ol]
IC50 (IL-17F; Homo sapiens, PBMC): 500 to 5000 nM | IC50 (IL-17A; Homo sapiens, PBMC): ≥ 5000 nM | IC50 (INF-γ; Homo sapiens, PBMC): 500 to 5000 nM

COc1cccc(-c2noc(-c3cnn(CCC(C)(C)O)c3C(F)(F)F)c2COC2CC2)c1Cl [Example 91, 4-{4-[3-(2-chloro-3-methoxyphenyl)-4-(cyclopropoxymethyl)-1,2-oxazol-5-yl]-5-(trifluoromethyl)-1H-pyrazol-1-yl}-2-methylbutan-2-ol]
IC50 (IL-17F; Homo sapiens, PBMC): < 50 nM | IC50 (IL-17A; Homo sapiens, PBMC): < 50 nM | IC50 (INF-γ; Homo sapiens, PBMC): < 50 nM

COC(=O)c1c(-c2cccnc2O)noc1-c1cnn(CC(C)(C)O)c1C(F)(F)F [Example 93, methyl 5-[1-(2-hydroxy-2-methylpropyl)-5-(trifluoromethyl)-1H-pyrazol-4-yl]-3-(2-hydroxypyridin-3-yl)-1,2-oxazole-4-carboxylate]
IC50 (IL-17F; Homo sapiens, PBMC): 50 to 500 nM | IC50 (IL-17A; Homo sapiens, PBMC): 500 to 5000 nM | IC50 (INF-γ; Homo sapiens, PBMC): 50 to 500 nM

C[C@@H](O)Cn1ncc(-c2cc(-c3c(F)cccc3Cl)no2)c1C(F)(F)F [Example 94, (2R)-1-(4-(3-(2-chloro-6-fluorophenyl)isoxazol-5-yl)-5-(trifluoromethyl)-1H-pyrazol-1-yl)propan-2-ol]
IC50 (IL-17F; Homo sapiens, PBMC): ≥ 5000 nM | IC50 (IL-17A; Homo sapiens, PBMC): ≥ 5000 nM | IC50 (INF-γ; Homo sapiens, PBMC): 500 to 5000 nM

C[C@H](O)Cn1ncc(-c2onc(-c3ccccc3Cl)c2C2CCCO2)c1C(F)(F)F (stereo partly drawn) [Example 96, (2S)-1-{4-[3-(2-chlorophenyl)-4-(oxolan-2-yl)-1,2-oxazol-5-yl]-5-(trifluoromethyl)-1H-pyrazol-1-yl}propan-2-ol]
IC50 (IL-17F; Homo sapiens, PBMC): 500 to 5000 nM | IC50 (IL-17A; Homo sapiens, PBMC): 500 to 5000 nM | IC50 (INF-γ; Homo sapiens, PBMC): 50 to 500 nM

C[C@]1(O)C[C@@H](n2ncc(-c3onc(-c4c(F)cccc4Cl)c3-c3ccncn3)c2C(F)(F)F)C1 [Example 105, 3-{4-[3-(2-chloro-6-fluorophenyl)-4-(pyrimidin-4-yl)-1,2-oxazol-5-yl]-5-(trifluoromethyl)-1H-pyrazol-1-yl}-1-methylcyclobutan-1-ol]
IC50 (IL-17F): 50 to 500 nM | IC50 (IL-17A): 500 to 5000 nM | IC50 (INF-γ): 50 to 500 nM

Cc1c(-c2onc(-c3ccccc3Cl)c2-c2ccncn2)cnn1[C@H]1C[C@@](C)(O)C1 [Example 107, 3-{4-[3-(2-chlorophenyl)-4-(pyrimidin-4-yl)-1,2-oxazol-5-yl]-5-methyl-1H-pyrazol-1-yl}-1-methylcyclobutan-1-ol]
IC50 (IL-17F; Homo sapiens, PBMC): 50 to 500 nM | IC50 (IL-17A; Homo sapiens, PBMC): 50 to 500 nM | IC50 (INF-γ; Homo sapiens, PBMC): < 50 nM

Cc1c(-c2onc(-c3c(F)cccc3Cl)c2-c2ccncn2)cnn1[C@H]1C[C@@](C)(O)C1 [Example 108, 3-{4-[3-(2-chloro-6-fluorophenyl)-4-(pyrimidin-4-yl)-1,2-oxazol-5-yl]-5-methyl-1H-pyrazol-1-yl}-1-methylcyclobutan-1-ol]
IC50 (IL-17F; Homo sapiens, PBMC): 50 to 500 nM | IC50 (IL-17A; Homo sapiens, PBMC): 50 to 500 nM | IC50 (INF-γ; Homo sapiens, PBMC): 50 to 500 nM

Cc1c(-c2onc(-c3ccccc3Cl)c2-c2cnccn2)cnn1[C@H]1C[C@@](C)(O)C1 [Example 109, 3-{4-[3-(2-chlorophenyl)-4-(pyrazin-2-yl)-1,2-oxazol-5-yl]-5-methyl-1H-pyrazol-1-yl}-1-methylcyclobutan-1-ol]
IC50 (IL-17F; Homo sapiens, PBMC): 500 to 5000 nM | IC50 (IL-17A; Homo sapiens, PBMC): 500 to 5000 nM | IC50 (INF-γ; Homo sapiens, PBMC): 50 to 500 nM

COc1ccccc1-c1noc(-c2cnn(C[C@@H](C)O)c2C(F)(F)F)c1-c1ncccn1 [Example 113, (2R)-1-{4-[3-(2-methoxyphenyl)-4-(pyrimidin-2-yl)-1,2-oxazol-5-yl]-5-(trifluoromethyl)-1H-pyrazol-1-yl}propan-2-ol]
IC50 (IL-17F; Homo sapiens, PBMC): 50 to 500 nM | IC50 (IL-17A; Homo sapiens, PBMC): 500 to 5000 nM | IC50 (INF-γ; Homo sapiens, PBMC): 500 to 5000 nM

From US11292788B2, “IL-17 and IFN-gamma inhibition for the treatment of autoimmune diseases and chronic inflammation” (Immunic AG, priority 2017, dated 2022)
